Measured values: patent US7179812B2, “Diazine derivatives” (Hoffmann-la Roche Inc., priority 2005, dated 2007)

Each molecule was assayed against T1, HER2 (Homo sapiens, UniProt P04626) (assay: Inhibition of HER2 phosphorylation in Calu3 tumor cell line). Settings: Calu-3; compound concentration 1 μM; Calu3 cells, 16 h incubation; pY 1248 in HER2; percentage of the DMSO treated control; read-out: Percent inhibition of HER2-phosphorylation.
T1 construct: endogenous in cells; host or cells: Calu3 tumor cell line
T1 sequence (P04626 23-1255): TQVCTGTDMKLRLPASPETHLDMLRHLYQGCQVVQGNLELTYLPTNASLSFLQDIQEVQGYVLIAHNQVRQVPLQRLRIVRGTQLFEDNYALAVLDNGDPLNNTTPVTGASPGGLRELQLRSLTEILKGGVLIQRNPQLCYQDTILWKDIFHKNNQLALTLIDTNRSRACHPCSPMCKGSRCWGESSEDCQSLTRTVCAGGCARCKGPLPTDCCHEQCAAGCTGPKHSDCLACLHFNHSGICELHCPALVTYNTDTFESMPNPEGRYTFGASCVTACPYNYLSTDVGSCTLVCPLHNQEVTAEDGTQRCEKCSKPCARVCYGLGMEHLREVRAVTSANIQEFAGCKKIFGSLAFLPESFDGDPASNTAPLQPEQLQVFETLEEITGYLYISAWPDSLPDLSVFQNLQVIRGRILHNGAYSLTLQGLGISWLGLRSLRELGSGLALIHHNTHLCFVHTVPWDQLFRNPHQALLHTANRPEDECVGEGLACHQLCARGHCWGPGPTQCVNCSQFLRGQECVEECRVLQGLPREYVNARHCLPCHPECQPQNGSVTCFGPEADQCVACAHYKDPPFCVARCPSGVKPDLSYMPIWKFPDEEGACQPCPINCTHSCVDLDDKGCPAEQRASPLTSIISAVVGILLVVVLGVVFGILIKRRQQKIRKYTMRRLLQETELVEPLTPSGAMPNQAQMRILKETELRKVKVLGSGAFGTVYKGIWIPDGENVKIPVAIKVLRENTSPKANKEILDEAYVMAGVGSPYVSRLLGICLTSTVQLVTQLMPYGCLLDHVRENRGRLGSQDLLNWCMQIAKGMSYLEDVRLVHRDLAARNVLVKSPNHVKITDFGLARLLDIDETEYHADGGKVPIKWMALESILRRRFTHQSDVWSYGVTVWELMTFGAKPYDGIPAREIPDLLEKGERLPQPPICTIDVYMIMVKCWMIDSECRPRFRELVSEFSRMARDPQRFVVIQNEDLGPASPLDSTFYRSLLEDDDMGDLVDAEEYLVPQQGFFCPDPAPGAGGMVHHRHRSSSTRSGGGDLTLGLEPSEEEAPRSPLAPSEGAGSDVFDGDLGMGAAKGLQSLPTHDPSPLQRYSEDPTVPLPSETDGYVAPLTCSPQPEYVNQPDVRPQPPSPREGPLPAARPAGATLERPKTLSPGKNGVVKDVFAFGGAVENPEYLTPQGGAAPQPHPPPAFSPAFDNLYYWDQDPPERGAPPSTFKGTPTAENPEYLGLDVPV
Type: cell-based
Description: Inhibition of HER2 Phosphorylation in Calu3 Tumor Cell Line
2×10^5 Calu3 cells per well were plated in a 12-well plate. After 4 days cells were starved for 16 h in DMEM(Dulbecco's Modified Eagle Medium)/0.5% FCS(Fetal Calf Serum)/1% Glutamine. During this time cells were incubated with 1 μM of the compound. Afterwards cells were lysed in lyses buffer containing 1% Triton, 10% Glycerol, 1 mM EGTA, 1.5 mM MgCl2, 150 mM NaCl, 50 mM Hepes pH 7.5, 1 mM PMSF, 10 μg/mL Aprotinin and […] Orthovanadate. Cell lysates were analyzed on a SDS PAGE and after transfer to a nitrocellulose membrane detected with an antibody specifically recognizing the pY 1248 in HER2. Inhibition of HER2 phosphorylation is calculated as percentage of the DMSO treated control. This percentage is calculated according to the following formula: Inhibition in %=100−(Phosphorylated-HER2-Signal of Test Sample*100/Phosphorylated-HER2-Signal DMSO-control).

inhibition at 1 µM [%] | Compound
79.8 | FC(F)(F)c1ccc(C=Cc2nc(COc3ccc(CCCCn4ccnn4)nn3)co2)cc1 [example 2, 3-(4-[1,2,3]Triazol-1-yl-butyl)-6-{2-[2-(4-trifluoromethyl-phenyl)-vinyl]-oxazol-4-ylmethoxy}-pyridazine]
75.3 | FC(F)(F)c1ccc(C=Cc2nc(COc3cnc(CCCCn4ccnn4)cn3)co2)cc1 [example 7, 2-(4-[1,2,3]Triazol-1-yl-butyl)-5-{2-[2-(4-trifluoromethyl-phenyl)-vinyl]-oxazol-4-ylmethoxy}-pyrazine]
72.7 | FC(F)(F)c1ccc(C=Cc2nc(COc3ncc(CCCCn4ccnn4)cn3)co2)cc1 [example 4, 5-(4-[1,2,3]Triazol-1-yl-butyl)-2-{2-[2-(4-trifluoromethyl-phenyl)-vinyl]-oxazol-4-ylmethoxy}-pyrimidine]
